Reference: patent US10266490B2, “Radioprotector compounds” (GEORGETOWN UNIVERSITY, priority 2012, dated 2019)

What was measured:
[1] = test system: cultured cells (e.g., fibroblasts and epithelial cells); experiment: Radiation protection of cultured cells (clonogenic survival, various cell types); format: cell-based; details: for radiation protection relative to DIM: cultured cells
Description: DIM, a metabolite of indole-3-carbinol and a proposed […], is a potent radiation protector in cultured cells and in rodents (mice and rats). The preparation of DIM that was used for most experiments was a microencapsulated form of DIM produced by BioResponse Nutrients (Boulder, Colo.). This microencapsulated form of DIM is designed with specific excipients (e.g., alpha-tocopherol succinate and phosphatidylcholine) to provide enhanced absorption and, therefore, enhanced bioavailability.
(§1) Following the indicated treatment(s), subconfluent proliferating cells were irradiated with different doses of ^137Cs γ-rays, harvested using trypsin, and plated at different densities in the absence or presence of DIM (as indicated) for colony formation (clonogenic survival) assays, as described in Zhang et al., Radiat Res, 161:667-674 (2004). Values of surviving fraction are means±SEMs of triplicate plates.
Novel compounds were synthesized, which we have tested for their ability to protect cells against radiation in cultured cells. […] None of these compounds are predicted to be free-radical scavengers or to be genotoxic. For reference, clonogenic radiation survival curves of cultured human mammary epithelial cells treated without or with DIM are shown in FIG. 6, panels A and B. In these studies, human mammary epithelial cells at about 70-80% of confluency were treated with DIM (0.3 μM) or vehicle ([…]) for 24 hours. The cells were then irradiated using different doses of ^137Cs gamma rays, harvested, plated at different densities in the presence of DIM (0.3 μM) or vehicle, respectively, incubated for 14 days, and then counted for colony formation. In FIG. 6, panels A and B, the clonogenic survival curves are shown using non-tumorigenic human mammary epithelial cell lines Hs5788st (panel B) or 184A1 (panel A). All cell survival values are means±SEMs of three replicate dishes.

[2] = test system: Hs578Bst human mammary epithelial cells; experiment: Clonogenic survival after radiation, Hs578Bst cells; format: cell-based; details: single dose of radiation (8-Gy); different concentrations
Description: as §1
It was next tested whether DIM could protect cultured cells against radiation using clonogenic survival (colony formation) assays. Cells were exposed to DIM (0.3 μM) for 24-hr, irradiated, and harvested for colony formation assays. […]
Novel compounds were synthesized, which we have tested for their ability to protect cells against radiation in cultured cells. […] The cells were then irradiated using different doses of ^137Cs gamma rays, harvested, plated at different densities in the presence of DIM (0.3 μM) or vehicle, respectively, incubated for 14 days, and then counted for colony formation. […]
Cells at about 70-80% confluency were treated with vehicle (DMSO) or with the indicated compound (1 μM) for 24 hours, irradiated using different doses of ^137Cs gamma rays, harvested, plated at different densities in the presence of the compound (0.3 μM) or vehicle, respectively, incubated for 14 days, and then counted for colony formation. […]

ATM = experiment: Western blot of ATM signaling, 184A1 cells; format: cell-based, human; details: KU55933 10 μM
Protocol: FIG. 7A contains Western blots of subconfluent proliferating 184A1 human mammary epithelial cells exposed to DIM (0.3 μM) for different time intervals. Phosphorylated or total levels of ATM and of several different ATM substrate proteins were determined, as indicated. As a negative control, cells were treated with a selective inhibitor of ATM kinase activity (KU55933). FIG. 7B contains Western blots of 184A1 cells either untreated or treated with radiation (2-Gy of γ-radiation) and/or DIM (0.3 μM).
FIG. 8 contains a Western blot of subconfluent proliferating 184A1 human mammary epithelial cells exposed to DIM (0.3 μM) for different time intervals. Phosphorylated or total levels of ATM and of different DNA damage-response proteins were determined, as indicated.
Western blotting was performed. The primary antibodies were as follows: rabbit polyclonal anti-BRCA1 (sc-642, Santa Cruz); mouse monoclonal α-actin (sc-1616, Santa Cruz); anti-phospho-BRCA1 (S1387) [AB3257, Millipore (Billerica, Mass.)]; mouse monoclonal anti-ATM (sc-73615, Santa Cruz,); anti-phospho-ATM (S1981); anti-CHK2 (05-649, mouse monoclonal, Millipore); anti-phosph-CHK2 (T68) (ab32055, rabbit monoclonal, Abcam, Cambridge, Mass.); anti-p53 (ab2433, rabbit polyclonal, Abcam), and rabbit polyclonal anti-phospho-p53 (S15) (ab38497, Abcam).

[3] = test system: non-homologous end joining; experiment: DNA strand rejoining assay (linearized plasmid pEGFP-1, nuclear lysates); format: cell-based, human; details: 184A1 cells; inhibitor 10 μM
Protocol: FIGS. 11A and 11B show subconfluent proliferating 184A1 (FIG. 11A) or Hs578Bst (FIG. 11B) cells pre-treated±DIM (0.3 μM×24 hr); exposed to radiation (3-Gy) on ice; and subjected to neutral comet assays at different times post-irradiation. Values of % tail DNA are means±ranges of two determinations. […] At 24-hr after irradiation, cells were analyzed by flow cytometry for apoptosis, by measuring membrane redistribution of phosphatidylserine. The percentage of early and late apoptotic cells for non-irradiated control cells were: vehicle treated, 1.25% and 1.34%, and DIM-treated, 0.54% and 1.02%, respectively.
After the indicated cell treatment(s), nuclear lysates were prepared and aliquots of lysate (50 or 75 μg of nuclear protein) were tested for their ability to rejoin a plasmid (pEGFP-1, Clontech) that had been linearized using restriction enzyme SmaI. The reaction products were detected by Southern blotting, which was performed with a digoxigenin-labeled enhanced green fluorescent protein RNA probe. The percent rejoined plasmids […] was determined by densitometric quantification of the bands corresponding to rejoined and unrejoined plasmid.
Since ATM is known to have a major role in the repair of radiation-induced double-strand breaks (DSBs) of DNA, it was tested whether DIM could stimulate the repair of DSBs. The neutral comet assay is an electrophoretic method to measure DNA damage that reflects DSBs. The percent of tail DNA after irradiation reflects the number of DSBs. […] A DNA strand-rejoining assay based on the ability of cell nuclei to rejoin a linearized plasmid (pEGFP-1) was also performed, detected by Southern blotting. This assay reflects the process of non-homologous end joining (NEHJ).

CCOC(=O)C(O)(c1c(C)n(C)c2ccccc12)C(F)(F)F (stereo not drawn) [THW-5-85]
radiation protection relative to DIM [1]: strong levels of radiation protection similar to, slightly greater than, or slightly less than DIM | potency of survival enhancement relative to DIM [2]: at least as potent as DIM

c1ccc2c(Cc3c[nH]c4ccccc34)c[nH]c2c1 [crystalline DIM, 3,3′-diindolylmethane]
radioprotection of cultured cells ([1]; ionizing radiation, clonogenic survival assays): work very well as radioprotectors

O=c1cc(-c2cccc3c2Sc2ccccc2S3)oc(N2CCOCC2)c1 [KU55933]
effect on DIM-induced phosphorylations of ATM, BRCA1 and CHK2 (ATM): blocked | effect on DIM-induced strand-rejoining [3]: blocked DIM-induced strand-rejoining

COc1ccc2c(c1)[nH]c1c(C)c(OS(=O)(=O)c3cccc4c(N(C)C)cccc34)ccc12 [KED-4-69]
radiation protection relative to DIM [1]: strong levels of radiation protection similar to, slightly greater than, or slightly less than DIM
